Structures can show the parent of a compound that is named as a salt.
test system: SB.mhdgc-1; experiment: area under the dose-response curve of % viability (trapezoidal, 11 doses) (% viability x log10 concentration); higher = less cytotoxic; conditions: SB.mhdgc-1 (hereditary c.1380delA CDH1 gastric cancer)
Summary of the method: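 Patient-derived gastric cancer cells, hereditary or sporadic, were plated at 500 cells in 5 μL medium per well of a 1536-well plate and given 23 nL of compound in DMSO by pintool across 11 threefold dilutions. The top concentration was recorded for each compound. After 48 h, CellTiter-Glo was added for 30 min at room temperature and luminescence was read on a ViewLux. Values are viability normalised to DMSO, taken either at the highest concentration or as trapezoidal area under the curve.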

| SMILES | area under the dose-response curve |
| --- | --- |
| OC[C@H]1O[C@@H](Oc2ccc(O)cc2)[C@H](O)[C@@H](O)[C@@H]1O [Arbutin] (top concentration 46.0829 µM) | 404 |
| C\C1=C\N([C@H]2C[C@H](N=[N+]=[N-])[C@@H](CO)O2)C(=O)NC1=O [Zidovudine] (top concentration 46.0829 µM) | 448 |
| COc1ncc(-c2ccc3nccc(-c4ccnnc4)c3c2)cc1N[S+](=O)([O-])c1ccc(F)cc1F (top concentration 46.0829 µM) | 148 |
| CCCCCN(CCC12CC3CC(CC(C3)C1)C2)C(=O)NCCCc1ccncc1 [DE-096] (top concentration 46.0829 µM) | 536 |
| N=C(NCCCCCCNC(=N)NC(=N)Nc1ccc(Cl)cc1)NC(=N)Nc1ccc(Cl)cc1 [Chlorhexidine] (top concentration 46.0829 µM) | 386 |
| COC(=O)[C@@H]1CC2=CC(=O)CC[C@]2(C)[C@@]23O[C@@H]2C[C@@]2(C)[C@@H](CC[C@@]24CCC(=O)O4)[C@H]13 [Eplerenone] (top concentration 46.0829 µM) | 555 |
| CN(C)c1nc(Cc2ccc(NC(=O)c3ccc(C(F)(F)F)cc3)cc2)nc(N(C)C)c1CC(=O)O [AP-761] (top concentration 46.0829 µM) | 490 |
| Cc1coc2c1C(=O)C(=O)c1c-2ccc2c1CCCC2(C)C [Tanshinone IIA] (top concentration 46.0829 µM) | 418 |
| COc1cc2nccc(Oc3ccc(NC(=O)Nc4cc(C)on4)c(Cl)c3)c2cc1OC [Tivozanib] (top concentration 46.0829 µM) | 460 |
| Cc1cccc(-c2nn(C(=S)Nc3ccccc3)cc2-c2ccnc3ccccc23)n1 [A 83-01] (top concentration 46.0829 µM) | 550 |
| Clc2cccc(Cl)c2\N=C1/NCCN1 [Clonidine] (top concentration 46.0829 µM) | 591 |
| C[S+](=O)([O-])c1ccc(-c2cnc(N)c(C(=O)Nc3ccccc3)n2)cc1 [VE-821] (top concentration 46.0829 µM) | 477 |
| O=C1N(c2ccccc2)c2ccccc2C1(Cc1ccncc1)Cc1ccncc1 [Linopirdine] (top concentration 46.0829 µM) | 369 |
| CCOC(=O)/C=C/[C@H](C[C@@H]1CCNC1=O)NC(=O)[C@@H](CC(=O)[C@@H](NC(=O)c1cc(C)on1)C(C)C)Cc1ccc(F)cc1 [Rupintrivir] (top concentration 46.0829 µM) | 539 |
| Nc1c2c(nc3ccccc13)CCCC2 [Tacrine hydrochloride] (top concentration 46.0829 µM) | 627 |
| COc1ccccc1OCC(O)COC(N)=O (configuration not stated) [Methocarbamol] (top concentration 46.0829 µM) | 533 |
| COc1ccc([S+](=O)([O-])N(C(C)=O)c2ccccc2/C=C/c2cc[n+]([O-])cc2)cc1 [IVX-214] (top concentration 46.0829 µM) | 371 |
| CCCCc1oc2ccccc2c1C(=O)c1cc(I)c(OCCN(CC)CC)c(I)c1 [Amiodarone] (top concentration 46.0829 µM) | 462 |
| COc1cc2nc(N3CCN(C(=O)C4COc5ccccc5O4)CC3)nc(N)c2cc1OC (configuration not stated) [Doxazosin mesylate] (top concentration 46.0829 µM) | 569 |
| CC(C)(C(=O)NCC(F)(F)C(F)(F)F)C(=O)N[C@@H]1C(=O)Nc2ccccc2-c2ccccc21 (top concentration 46.0829 µM) | 408 |
| CC[C@H](CC[C@@H](C)[C@H]1CC[C@H]2[C@@H]3C\C=C/4C[C@@H](O)CC[C@]4(C)[C@H]3CC[C@]12C)C(C)C [beta-Sitosterol] (top concentration 46.0829 µM) | 547 |
| COc1ccc(-c2nc3cc(C4=NNC(=O)CC4C)ccc3[nH]2)cc1 (configuration not stated) [Pimobendan] (top concentration 46.0829 µM) | 526 |
| COC1=CC=C2/C3=N/CCN3\C(=N/C2=C1OC)NC(=O)C4=CC=CN=C4 [PIK-90] (top concentration 46.0829 µM) | 415 |
| CN1C(=O)CCS(=O)(=O)C1c1ccc(Cl)cc1 (configuration not stated) [Chlormezanone] (top concentration 46.0829 µM) | 517 |

| SMILES | area under the dose-response curve |
| --- | --- |
| CC(=O)O/N=C1/C(=C2\C(=O)Nc3cc(Br)ccc32)Nc2ccccc21 [6-Bromoindirubin-3'-acetoxime] (top concentration 46.0829 µM) | 418 |
| O=C(NCC1CN(c2ccc(N3CCOCC3=O)cc2)C(=O)O1)c1ccc(Cl)s1 (configuration not stated) [Rivaroxaban] (top concentration 46.0829 µM) | 538 |
| CC[C@@H]1C(=O)N(C)c2cnc(Nc3ccc(C(=O)NC4CCN(C)CC4)cc3OC)nc2N1C1CCCC1 [BI-2536] (top concentration 46.0829 µM) | 387 |
| NCCCCCC(=O)O [Aminocaproic acid] (top concentration 46.0829 µM) | 603 |
| C[S+]([O-])(=O)C1=CC=C(C=C1)C/2=C(/C(=O)OC2)C3=CC=CC=C3 [Rofecoxib] (top concentration 46.0829 µM) | 555 |
| CC(=O)SCC(Cc1ccccc1)C(=O)NCC(=O)OCc1ccccc1 (configuration not stated) [Racecadotril] (top concentration 46.0829 µM) | 333 |
| O=C(c1ccccc1)c1ccc2n1CCC2C(=O)O (configuration not stated) [Ketorolac] (top concentration 46.0829 µM) | 453 |
| O=C1c2c(O)ccc(O)c2C(=O)c2c(NCCNCCO)ccc(NCCNCCO)c21 [Mitoxantrone] (top concentration 46.0829 µM) | 263 |
| CN1C(=O)C(=C/2N(C(=O)N(C3CC3)C(=O)C2=C1/NC4=CC=C(I)C=C4F)C5=CC=CC(=C5)NC(C)=O)\C [Trametinib] (top concentration 46.0829 µM) | 410 |
| C1CCC(C(CC2CCCCN2)C2CCCCC2)CC1 (configuration not stated) [Perhexiline] (top concentration 46.0829 µM) | 551 |
| Cc1c[nH]c(/C=C2\C(=O)Nc3ccccc32)c1CCC(=O)O [SU-5402] (top concentration 46.0829 µM) | 546 |
| OC(=O)C(CC/1=C/C(=O)NC2=CC=CC=C12)NC(=O)C3=CC=C(Cl)C=C3 (configuration not stated) [Rebamipide] (top concentration 46.0829 µM) | 396 |
| CCC[C@H](Nc1nc(-c2ccc(NC(=O)NCC)c(OC)c2)ncc1C)c1cccnc1 [Lexibulin hydrochloride] (top concentration 46.0829 µM) | 257 |
| O=C(Nc1ncc(-c2cc(C(F)F)nn2-c2c(Cl)cccc2Cl)s1)C1CC1 [BMS-3] (top concentration 46.0829 µM) | 385 |
| OC1=C(C=CC=C1)C2=CC=C(C=C2)C3=CSC4=C3C(=C(/C#N)C(=O)N4)/O (top concentration 46.0829 µM) | 456 |
| CCCCCCCCCCCCc1ccc([S+](=O)([O-])Nc2nncs2)cc1 [PHT-427] (top concentration 46.0829 µM) | 512 |
| Nc1nc(Cl)nc2c1ncn2[C@H]1C[C@H](O)[C@@H](CO)O1 [Cladribine] (top concentration 46.0829 µM) | 372 |
| NC/1=N/C2=C([NH]C=N2)C(=S)N1 [Tioguanine] (top concentration 46.0829 µM) | 467 |
| O=C(Nc1ccncc1)C(=O)c1cn(Cc2ccc(Cl)cc2)c2ccccc12 [Indibulin] (top concentration 46.0829 µM) | 468 |
| O=c1[nH]c(=O)n([C@H]2C[C@H](O)[C@@H](CO)O2)cc1/C=C/Br [Brivudine] (top concentration 46.0829 µM) | 563 |
| FC(F)(F)c1ccc(Nc2nc3cc(Oc4ccnc(-c5ncc(C(F)(F)F)[nH]5)c4)ccc3[nH]2)cc1 [RAF-265 derivative] (top concentration 46.0829 µM) | 476 |
| CC(C)C(=O)Oc1ccc(CO)cc1[C@H](CCN(C(C)C)C(C)C)c1ccccc1 [Fesoterodine fumarate] (top concentration 46.0829 µM) | 446 |
| COc1ccc(C(=O)c2c(C)n(CCN3CCOCC3)c3ccccc23)cc1 [Pravadoline] (top concentration 46.0829 µM) | 563 |

— the supplement of paper PMC5412046
